This is an account of results in PubChem BioAssay AID330 (DTP/NCI, 2004).

This assay concerns P388 leukemia ip, CD2F1 mice, survival T/C. The assay can be described thus: NCI In Vivo Anticancer Drug Screen. Data for tumor model P388 Leukemia (intraperitoneal) in CD2F1 (CDF1) mice. The settings on record: endpoint: median survival time, higher = longer survival. In short, it runs like this: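 Mice carrying the transplanted tumor received test compound or vehicle. Survival was recorded in each group, and the value is the treated-group measurement divided by that of the vehicle-treated control group.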

[1] abbreviates: dose: 50.0 mg/kg/injection, schedule: Q01DX009 (ip), vehicle: other.
Where [2] appears, read: dose: 100.0 mg/kg/injection, schedule: Q01DX009 (ip), vehicle: other.
Where [3] appears, read: dose: 200.0 mg/kg/injection, schedule: Q01DX009 (ip), vehicle: other.
Where [4] appears, read: dose: 50.0 mg/kg/injection, schedule: Q01DX009 (ip), vehicle: saline with Tween-80.
Setting [5] is: dose: 100.0 mg/kg/injection, schedule: Q01DX009 (ip), vehicle: saline with Tween-80.
The mark [6] stands for this setting: dose: 200.0 mg/kg/injection, schedule: Q01DX009 (ip), vehicle: saline with Tween-80.
Where [7] appears, read: dose: 1.87 mg/kg/injection, schedule: Q01DX005 (ip), vehicle: saline with Tween-80.
Setting [8] is: dose: 3.75 mg/kg/injection, schedule: Q01DX005 (ip), vehicle: saline with Tween-80.
Where [9] appears, read: dose: 7.5 mg/kg/injection, schedule: Q01DX005 (ip), vehicle: saline with Tween-80.
Setting [10] is: dose: 240.0 mg/kg/injection, schedule: Q01DX005 (ip), vehicle: saline with Tween-80.
Setting [11] is: dose: 50.0 mg/kg/injection, schedule: Q01DX005 (ip), vehicle: saline with Tween-80.
Setting [12] is: dose: 100.0 mg/kg/injection, schedule: Q01DX005 (ip), vehicle: saline with Tween-80.
The mark [13] stands for this setting: dose: 200.0 mg/kg/injection, schedule: Q01DX005 (ip), vehicle: saline with Tween-80.
The mark [14] stands for this setting: dose: 50.0 mg/kg/injection, schedule: Q01DX005 (ip), vehicle: saline.
Where [15] appears, read: dose: 100.0 mg/kg/injection, schedule: Q01DX005 (ip), vehicle: saline.

Values joined by “and” are separate entries in the source; they are usually repeats but may differ in a detail not shown here. Equal entries are not always repeated. Inconclusive results and toxic doses are left out.

In the case of `Cn1c(=O)c2cc3c(cc2c2ccccc21)OCO3`, the T/C (dose: 25.0 mg/kg/injection, schedule: Q01DX009 (ip), vehicle: other) is 90 % of control; the T/C under setting [1] was 93 % of control; the T/C under setting [2] is 90 % of control; the T/C under setting [3] was 90 % of control; the T/C (dose: 400.0 mg/kg/injection, schedule: Q01DX009 (ip), vehicle: other) is 93 % of control.
For the compound `OCCN(CCO)c1cc(/C=C/c2c3ccccc3cc3ccccc23)nc2ccccc12`, the T/C is 89 % of control under setting [4], 93 % of control under setting [5] and 92 % of control under setting [6].
With `O=[N+]([O-])/N=c1/nc2scc(-c3ccc([N+](=O)[O-])cc3)n2s1`, the T/C is 99 % of control under setting [7]; 107 % of control under setting [8]; 99 % of control and 97 % of control under setting [9]; 91 % of control (dose: 30.0 mg/kg/injection, schedule: Q01DX005 (ip), vehicle: saline with Tween-80); 106 % of control (dose: 60.0 mg/kg/injection, schedule: Q01DX005 (ip), vehicle: saline with Tween-80); 87 % of control under setting [10].
Regarding `CCOC(=O)/C(Cl)=C1\SN(C(=O)OCC)N=C1C`, the T/C runs as follows: under setting [11], 99 % of control; under setting [12], 95 % of control; under setting [13], 96 % of control.
In the case of `CN(C)c1nc(-c2ccccc2)cc(=O)[nH]1`, the T/C was 102 % of control (dose: 15.0 mg/kg/injection, schedule: Q01DX009 (ip), vehicle: saline with Tween-80); 108 % of control (dose: 30.0 mg/kg/injection, schedule: Q01DX009 (ip), vehicle: saline with Tween-80); 98 % of control (dose: 50.0 mg/kg/injection, schedule: Q04DX003 (ip), vehicle: Klucel (hydroxypropylcellulose) (HPC)); 100 % of control (dose: 60.0 mg/kg/injection, schedule: Q01DX009 (ip), vehicle: saline with Tween-80); 94 % of control (dose: 100.0 mg/kg/injection, schedule: Q04DX003 (ip), vehicle: Klucel (hydroxypropylcellulose) (HPC)); 94 % of control (dose: 200.0 mg/kg/injection, schedule: Q04DX003 (ip), vehicle: Klucel (hydroxypropylcellulose) (HPC)). For the setting “dose: 400.0 mg/kg/injection, schedule: Q04DX003 (ip), vehicle: Klucel (hydroxypropylcellulose) (HPC)”, the T/C was 92 % of control.
For `C=C(C)C(=O)OC1CCC2Cc3occ(C)c3C(OC(=O)C(=C)C)C2(C)C1C` (configuration not stated), the T/C was 93 % of control (dose: 20.0 mg/kg/injection, schedule: Q01DX009 (ip), vehicle: saline with Tween-80); 102 % of control (dose: 40.0 mg/kg/injection, schedule: Q01DX009 (ip), vehicle: saline with Tween-80); 93 % of control (dose: 80.0 mg/kg/injection, schedule: Q01DX009 (ip), vehicle: saline with Tween-80); 93 % of control (dose: 160.0 mg/kg/injection, schedule: Q01DX009 (ip), vehicle: saline with Tween-80).
With `COc1ccc2c(Cl)ccnc2c1OC`, the T/C was 99 % of control under setting [11] and 107 % of control under setting [12].
As to `CCOC(=O)c1c(C)csc1NC(C)=O`, the T/C is, setting by setting: under setting [5], 120 % of control; under setting [6], 115 % of control; (dose: 400.0 mg/kg/injection, schedule: Q01DX009 (ip), vehicle: saline with Tween-80) 115 % of control.
Turning to `CC(=O)OCC#CCOC(C)=O`, the T/C by setting is: (dose: 12.5 mg/kg/injection, schedule: Q01DX009 (ip), vehicle: saline sonified) 100 % of control; (dose: 25.0 mg/kg/injection, schedule: Q01DX009 (ip), vehicle: saline sonified) 100 % of control; (dose: 50.0 mg/kg/injection, schedule: Q01DX009 (ip), vehicle: saline sonified) 100 % of control.
For the compound `C/C(N)=N/OCc1ccccc1`, the T/C reads like this: (dose: 50.0 mg/kg/injection, schedule: Q01DX005 (ip), vehicle: Klucel + Tween-80) 98 % of control; under setting [14], 92 % of control; (dose: 100.0 mg/kg/injection, schedule: Q01DX005 (ip), vehicle: Klucel + Tween-80) 102 % of control; under setting [15], 107 % of control; (dose: 200.0 mg/kg/injection, schedule: Q01DX005 (ip), vehicle: Klucel + Tween-80) 102 % of control; (dose: 200.0 mg/kg/injection, schedule: Q01DX005 (ip), vehicle: saline) 102 % of control.
For `COc1cc2cc[n+](C)c(Cc3ccc(Oc4cc(Cc5c6cc(OC)c(OC)cc6cc[n+]5C)ccc4OC)cc3)c2cc1OC`, the T/C is 98 % of control (dose: 2.5 mg/kg/injection, schedule: Q01DX009 (ip), vehicle: saline); 99 % of control (dose: 5.0 mg/kg/injection, schedule: Q01DX009 (ip), vehicle: saline); 88 % of control (dose: 10.0 mg/kg/injection, schedule: Q01DX009 (ip), vehicle: saline).
For `O=C(Oc1ccccc1)N1CCOCC1`, the T/C reads like this: under setting [1], 96 % of control; under setting [2], 102 % of control; under setting [3], 112 % of control.
As to `O=NN(CCCl)C(=O)Nc1ccc(I)cc1`, the T/C is 154 % of control (dose: 3.0 mg/kg/injection, schedule: Q01DX009 (ip), vehicle: saline with Tween-80); 163 % of control (dose: 4.5 mg/kg/injection, schedule: Q01DX009 (ip), vehicle: saline with Tween-80); 154 % of control (dose: 6.25 mg/kg/injection, schedule: Q04DX003 (ip), vehicle: saline with Tween-80); 150 % of control and 152 % of control (dose: 11.0 mg/kg/injection, schedule: Q01DX009 (ip), vehicle: saline with Tween-80); 163 % of control (dose: 12.5 mg/kg/injection, schedule: Q04DX003 (ip), vehicle: saline with Tween-80); 154 % of control and 157 % of control (dose: 16.5 mg/kg/injection, schedule: Q01DX009 (ip), vehicle: saline with Tween-80). The T/C (dose: 25.0 mg/kg/injection, schedule: Q01DX009 (ip), vehicle: saline with Tween-80) was 152 % of control and 154 % of control and 163 % of control; the T/C (dose: 25.0 mg/kg/injection, schedule: Q04DX003 (ip), vehicle: saline sonified) was 150 % of control; the T/C (dose: 37.5 mg/kg/injection, schedule: Q01DX009 (ip), vehicle: saline with Tween-80) is 171 % of control and 177 % of control; the T/C under setting [4] is 200 % of control; the T/C (dose: 50.0 mg/kg/injection, schedule: Q04DX003 (ip), vehicle: saline sonified) is 183 % of control.
On to `CCOC(=O)c1c(-c2ccccc2)csc1NC(=O)CN1CCCCC1`, for which the T/C reads like this: under setting [11], 98 % of control; under setting [12], 114 % of control; under setting [13], 113 % of control.
For the compound `Nc1ccc(-c2nc(N)c3[nH]cnc3n2)cc1`, the T/C was 97 % of control (dose: 12.5 mg/kg/injection, schedule: Q01DX005 (ip), vehicle: suspension in saline); 102 % of control (dose: 25.0 mg/kg/injection, schedule: Q01DX005 (ip), vehicle: suspension in saline); 100 % of control (dose: 50.0 mg/kg/injection, schedule: Q01DX005 (ip), vehicle: suspension in saline); 99 % of control (dose: 100.0 mg/kg/injection, schedule: Q01DX005 (ip), vehicle: suspension in saline).
Turning to `Cc1cc(N=Nc2ccc(NC(=O)c3ccc(N)cc3)cc2C)ccc1N=Nc1ccc2c(O)c(N=Nc3ccc(S(=O)(=O)O)cc3)c(S(=O)(=O)O)cc2c1`, the T/C reads like this: (dose: 12.5 mg/kg/injection, schedule: Q01DX005 (ip), vehicle: saline) 100 % of control; (dose: 25.0 mg/kg/injection, schedule: Q01DX005 (ip), vehicle: saline) 105 % of control; under setting [14], 105 % of control and 108 % of control; under setting [15], 103 % of control.
As for `CC(N=c1cc2n(-c3ccc(Cl)cc3)c3ccccc3nc-2cc1Nc1ccc(Cl)cc1)c1ccccc1` (configuration not stated), the T/C is 98 % of control under setting [7]; 101 % of control under setting [8]; 104 % of control and 86 % of control under setting [9]; 88 % of control under setting [10].
In the case of `S=C(Nc1ccccc1)P(c1ccccc1)c1ccccc1`, the T/C was 111 % of control and 99 % of control (dose: 50.0 mg/kg/injection, schedule: Q01DX005 (ip), vehicle: Klucel (hydroxypropylcellulose) (HPC)); 116 % of control and 89 % of control (dose: 100.0 mg/kg/injection, schedule: Q01DX005 (ip), vehicle: Klucel (hydroxypropylcellulose) (HPC)); 111 % of control and 89 % of control (dose: 200.0 mg/kg/injection, schedule: Q01DX005 (ip), vehicle: Klucel (hydroxypropylcellulose) (HPC)).
